Data taken from PubChem BioAssay (NCI).
Several values for one entry are separate records, joined by “and”; a condition that tells them apart may be missing. Equal entries are not always repeated.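 Growth conditions: 96-well plates. Treatment: test compound, 48 hours, 5 concentrations. Analysis: linear interpolation between bracketing concentrations; unreached endpoints set to highest concentration. GI50 is the concentration that inhibits growth by half. The concentration for full growth arrest is given as TGI.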 Where a SMILES comes first, the peptide text is derived from it. [ ]: non-standard residue; d: D form. The star is where a group is joined. ξ: configuration not given here. NMeF = CN[CH](Cc1ccccc1)C(=O)O; ξNMeF = CNC(Cc1ccccc1)C(=O)O; NMeV = CN[CH](C(=O)O)C(C)C; Boc = CC(C)(C)OC(=O)*; OBn = c1ccc(CO*)cc1

Key:
Experiment in all cases: DTP human tumour cell line panel, 48 h
XF 498 CNS = system: XF 498 CNS
M19-MEL melanoma = system: M19-MEL melanoma
DLD-1 colon = system: DLD-1 colon
LXFL 529 NSCLC = system: LXFL 529 NSCLC
SNB-78 CNS = system: SNB-78 CNS
DMS 273 small cell lung = system: DMS 273 small cell lung
KM20L2 colon = system: KM20L2 colon
DMS 114 small cell lung = system: DMS 114 small cell lung
RXF-631 renal = system: RXF-631 renal

| SMILES | TGI (XF 498 CNS) | TGI (M19-MEL melanoma) | TGI (DLD-1 colon) | TGI (LXFL 529 NSCLC) | TGI (SNB-78 CNS) | TGI (DMS 273 small cell lung) | TGI (KM20L2 colon) | TGI (DMS 114 small cell lung) | TGI (RXF-631 renal) | GI50 (XF 498 CNS) | GI50 (KM20L2 colon) | GI50 (M19-MEL melanoma) | GI50 (LXFL 529 NSCLC) |
| --- | --- | --- | --- | --- | --- | --- | --- | --- | --- | --- | --- | --- | --- |
| COc1ccc2c(c1)CCc1c-2[nH]c2cc3c(cc2c1=O)OCO3 | > 100 µM | > 100 µM | > 100 µM | > 100 µM | > 100 µM | > 100 µM | – | – | – | – | – | – | – |
| Nc1nc(SCC(=O)c2ccccc2)c2[nH]cnc2n1 | > 100 µM | > 100 µM | > 100 µM | – | – | > 100 µM | > 100 µM | > 100 µM | – | – | – | – | – |
| COc1cccc(NC(=O)CSc2nnc(Cc3ccccc3)o2)c1 | – | > 100 µM | > 100 µM | > 100 µM | > 100 µM | > 100 µM | > 100 µM | > 100 µM | – | – | – | – | – |
| O=C1c2ccccc2C(=O)N1CCCOCc1c[nH]c(=O)[nH]c1=O | > 100 µM | > 100 µM | > 100 µM | > 100 µM | – | > 100 µM | > 100 µM | > 100 µM | > 100 µM | – | – | – | – |
| CC(C)[C@@H](C(=O)N(C)[C@H](C(=O)N1CCC[C@H]1C(=O)OCc1ccccc1)C(C)C)N(C)C(=O)C(Cc1ccccc1)N(C)C(=O)[C@H](NC(=O)OC(C)(C)C)C(C)C (stereo partly drawn) (Boc-[dV][ξNMeF][NMeV][NMeV]P-OBn) | 27.9 µM | > 31.6 µM | > 31.6 µM | > 100 µM | > 31.6 µM | > 31.6 µM | > 31.6 µM | > 31.6 µM | – | – | – | – | – |
| Cc1ccc(Nc2cccc3c2C(=O)c2cccc(Nc4ccc(C)cc4S(=O)(=O)O)c2C3=O)c(S(=O)(=O)O)c1 | – | > 100 µM | > 100 µM | > 100 µM | > 100 µM | > 100 µM | > 100 µM | > 100 µM | > 100 µM | – | – | – | – |
| CNC(=O)C(C)Oc1ccc(OCC2CCCCC2)cc1 (stereo not drawn) | – | > 100 µM | > 100 µM | > 100 µM | > 100 µM | > 100 µM | – | > 100 µM | – | – | – | – | – |
| CC1(C)c2ccccc2N2C(c3ccccc3)=NOC21C (stereo not drawn) | – | > 100 µM | > 100 µM | > 100 µM | > 100 µM | > 100 µM | > 100 µM | > 100 µM | > 100 µM | – | – | – | – |
| CN(C)NC1=C([N+](=O)[O-])C=NN(c2ccccc2)C1 | 3.93 µM | 3.23 µM | 3.6 µM | 3.03 µM | 4.3 µM | 3.18 µM | 3.54 µM | 3.33 µM | 3.33 µM | – | – | – | – |
| CN(C)[C@@H]1C(=O)C(C(=O)NCNc2nc3n[nH]nc3c(=O)[nH]2)=C(O)[C@@]2(O)C(=O)C3=C(O)c4c(O)cccc4[C@@](C)(O)[C@H]3C[C@@H]12 | > 26.9 µM | 15 µM | > 77.8 µM | > 100 µM | > 100 µM | > 100 µM | > 68.9 µM | 13.8 µM | > 47.5 µM | – | – | – | – |
| CCN(CC)C(=O)CCn1cc(F)c(=O)[nH]c1=O | > 100 µM | > 100 µM | – | > 100 µM | > 100 µM | > 100 µM | > 100 µM | > 100 µM | – | – | – | – | – |
| CC(C)C(NC(=O)OC(C)(C)C)C(=O)N(C)C(Cc1ccccc1)C(=O)N(C)C(C(=O)OCc1ccccc1)C(C)C (stereo not drawn) (Boc-Val-[NMeF]-[NMeV]-OBn; configuration not given here) | 9.63 µM and 74.8 µM | > 100 µM | – | > 100 µM | – | > 100 µM | > 100 µM | > 100 µM | – | 3.54 µM and 28.6 µM | > 100 µM and 49.3 µM | 87.4 µM and 42.2 µM | 14.1 µM and 33.2 µM |
| CCC12C=CCN(CCc3c([nH]c4ccccc34)/C=C\1)C2 (stereo not drawn) | > 100 µM | > 100 µM | – | > 100 µM | – | > 100 µM | > 100 µM | > 100 µM | > 100 µM | – | – | – | – |
| CN(c1ccccc1)c1cc2ccccc2nn1 | > 100 µM | > 100 µM | > 100 µM | > 100 µM | > 100 µM | > 100 µM | > 100 µM | > 100 µM | > 100 µM | – | – | – | – |
